Read-outs that look alike come from different tables or passages of the source. One block for each molecule: values may come before it.
Legend:
[1] = UV-Vis absorption spectrum (anti-UVA and blue light properties); assay type: physicochemical; parameters: λmax: unit not given here
Excerpt: Un spectre UV-Vis a été réalisé dans l'éthanol à 10^-5 mol/L pour les composés 1 à 7, qui sont des dérivés furaniques de l'acide de Medrum. L'Avobenzone, une molécule très largement utilisée comme filtre UVA dans les crèmes solaires, a été utilisée en tant que référence.
Cette méthodologie a été employée pour évaluer les propriétés anti-UV des composés 8 à 11, qui sont des dérivés phénoliques de l'acide de Medrum, des composés 12 à 15 qui sont des dérivés pyrroliques de l'acide de Meldrum, des composés 16 à 18 qui sont des dérivés vinylphénol de l'acide de Meldrum, le composé 19 qui est un dérivé vinylfurane de l'acide de Meldrum.

[2] = Photostability under UV exposure; assay type: physicochemical; conditions: for A (t=0 min): absorbance before UV exposure
Excerpt: La stabilité des composés 1 à 7 aux UV a été étudiée par soumission à une exposition (λ : 300 nm, P : 8.32 W/m^2) pendant une heure.
L'Avobenzone a été utilisée comme molécule de référence. Cette molécule est connue pour être […] sous exposition UV, ce qui n'est pas du tout le cas d'autres composés bio-sourcés.
La photostabilité des composés 8 à 11 a également été étudiée, de manière identique au test appliqué aux composés 1 à 7. Les résultats obtenus sont présentés dans le Tableau 2. […] Cette méthodologie a été appliquée à l'ensemble des molécules décrites ci-dessus. Tableau 2 : Stabilité des composés 8 à 11 soumis à une exposition aux UV.

[3] = Antioxidant properties (IC50 compared with BHA and BHT); assay type: biochemical
Excerpt: Les propriétés anti-oxydantes des composés 8 à 11 ont été évaluées par comparaison de leur IC50 avec celles de deux molécules de référence que sont la BHA et le BHT. Ces deux molécules sont très largement utilisées dans les formulations cosmétiques bien qu'elles soient controversées pour leur effet potentiellement cancérigène.

[4] = biological target: T1, AR (récepteur des androgènes) (Homo sapiens, UniProt P10275); assay: Endocrine system: receptor activity in presence of compound (agonist effect); assay type: cell-based; conditions: Figure 6, C = 10 µM; even at the highest concentrations
T1 sequence (P10275 1-920): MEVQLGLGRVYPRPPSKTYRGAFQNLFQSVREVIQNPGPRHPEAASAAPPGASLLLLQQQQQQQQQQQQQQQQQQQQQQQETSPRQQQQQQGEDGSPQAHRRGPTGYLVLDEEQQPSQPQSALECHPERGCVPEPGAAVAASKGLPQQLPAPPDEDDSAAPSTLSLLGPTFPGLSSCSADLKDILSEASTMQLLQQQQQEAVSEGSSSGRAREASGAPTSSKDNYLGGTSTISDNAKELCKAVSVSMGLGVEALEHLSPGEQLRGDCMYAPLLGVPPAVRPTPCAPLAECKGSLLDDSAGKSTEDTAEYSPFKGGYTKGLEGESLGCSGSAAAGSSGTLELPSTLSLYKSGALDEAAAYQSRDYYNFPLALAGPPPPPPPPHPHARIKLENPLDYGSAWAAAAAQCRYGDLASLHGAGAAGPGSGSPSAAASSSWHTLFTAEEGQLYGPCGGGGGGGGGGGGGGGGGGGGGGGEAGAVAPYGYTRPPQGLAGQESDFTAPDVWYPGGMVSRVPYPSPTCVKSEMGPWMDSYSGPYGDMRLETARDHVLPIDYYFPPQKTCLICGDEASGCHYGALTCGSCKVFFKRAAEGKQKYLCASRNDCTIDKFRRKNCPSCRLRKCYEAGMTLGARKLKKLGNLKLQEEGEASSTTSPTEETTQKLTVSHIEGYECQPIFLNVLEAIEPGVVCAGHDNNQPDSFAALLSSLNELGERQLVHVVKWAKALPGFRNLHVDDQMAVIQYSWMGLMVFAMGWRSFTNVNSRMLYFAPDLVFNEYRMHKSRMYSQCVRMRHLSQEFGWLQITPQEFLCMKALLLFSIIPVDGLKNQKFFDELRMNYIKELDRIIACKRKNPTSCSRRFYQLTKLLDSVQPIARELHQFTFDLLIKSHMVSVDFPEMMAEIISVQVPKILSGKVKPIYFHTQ
Excerpt: (§1) L'effet des composés 1 et 4 sur le système endocrinien a été évalué pour leurs propriétés agonistes et antagonistes sur différents récepteurs : ERα (récepteur œstrogène alpha), AR (récepteur des androgènes) et PXR (pregnane X receptor). Un premier test consiste à étudier l'activité des récepteurs en présence du composé 1 ou 4 (effet agoniste). […] Un second test vise à l'étude de l'activité des récepteurs en présence du composé 1 ou 4 et d'une molécule de référence pour chaque récepteur (effet antagoniste).

[5] = biological target: T2, ERα (récepteur œstrogène alpha) (Homo sapiens, UniProt P03372); assay: as above; assay type: cell-based; conditions: Figure 6, C = 10 µM; even at the highest concentrations
T2 sequence (P03372 1-595): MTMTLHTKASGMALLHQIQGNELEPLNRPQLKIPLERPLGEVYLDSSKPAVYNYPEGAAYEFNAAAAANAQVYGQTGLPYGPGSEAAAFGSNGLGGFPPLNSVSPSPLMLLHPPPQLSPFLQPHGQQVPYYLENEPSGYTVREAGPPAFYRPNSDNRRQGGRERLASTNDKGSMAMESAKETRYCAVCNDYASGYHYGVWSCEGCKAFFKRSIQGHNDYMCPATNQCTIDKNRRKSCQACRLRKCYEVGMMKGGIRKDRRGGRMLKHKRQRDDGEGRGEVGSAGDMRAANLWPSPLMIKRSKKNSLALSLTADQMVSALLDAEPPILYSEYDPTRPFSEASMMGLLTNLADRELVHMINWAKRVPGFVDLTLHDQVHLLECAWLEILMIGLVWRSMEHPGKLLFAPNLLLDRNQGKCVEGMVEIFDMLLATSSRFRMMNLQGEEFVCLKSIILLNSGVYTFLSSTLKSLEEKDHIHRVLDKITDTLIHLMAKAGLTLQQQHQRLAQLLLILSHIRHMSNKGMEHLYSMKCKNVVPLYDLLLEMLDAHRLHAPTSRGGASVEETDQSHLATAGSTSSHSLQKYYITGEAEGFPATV
Excerpt: as §1

[6] = biological target: T3, PXR (pregnane X receptor) (Homo sapiens, UniProt O75469); assay: as above; assay type: cell-based; conditions: Figure 6, C = 10 µM; even at the highest concentrations
T3 sequence (O75469 1-434): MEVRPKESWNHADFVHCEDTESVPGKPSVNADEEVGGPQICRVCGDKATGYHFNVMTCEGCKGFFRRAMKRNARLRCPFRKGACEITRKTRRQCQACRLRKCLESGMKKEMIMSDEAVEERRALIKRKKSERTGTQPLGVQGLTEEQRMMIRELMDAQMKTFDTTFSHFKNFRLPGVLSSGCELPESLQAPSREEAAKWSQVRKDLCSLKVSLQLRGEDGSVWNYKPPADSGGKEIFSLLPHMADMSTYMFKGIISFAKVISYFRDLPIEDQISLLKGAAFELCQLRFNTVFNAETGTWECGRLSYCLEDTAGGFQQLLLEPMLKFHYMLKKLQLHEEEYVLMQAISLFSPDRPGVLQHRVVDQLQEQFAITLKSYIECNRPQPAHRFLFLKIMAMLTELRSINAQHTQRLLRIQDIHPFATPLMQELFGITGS
Excerpt: as §1

[7] = biological target: T1, AR (récepteur des androgènes); assay: Endocrine system: receptor activity in presence of compound and reference molecule (antagonist effect); assay type: cell-based; conditions: Figure 8; with reference molecule; even at the highest concentrations
Excerpt: as §1

[8] = biological target: T2, ERα (récepteur œstrogène alpha); assay: as above; assay type: cell-based; conditions: Figure 7; with reference molecule; even at the highest concentrations
Excerpt: as §1

[9] = biological target: T3, PXR (pregnane X receptor); assay: as above; assay type: cell-based; conditions: Figure 9; with reference molecule; even at the highest concentrations
Excerpt: as §1

[10] = Tableau 2, same test as for compounds 1 to 7 (λ 300 nm, P 8.32 W/m^2, one hour)
[11] = Tableau 1, UV exposure λ 300 nm, P 8.32 W/m^2, one hour
[12] = read-out: IC50 (nmol); antioxidant properties

λmax ([1]; Tableau 1): 361
Perte d'activité (%) [2, 11]: < 5%
Perte d'activité (%) ([2]; Tableau 1, UV exposure λ 300 nm, P 8.32 W/m^2, one hour, listed as Composé (1)): 3.5%
A (t=0 min) ([2]; Tableau 1): 0.3381
Compound: CC1(C)OC(=O)C(=Cc2ccco2)C(=O)O1 [Composé 1, 5-(2-Furanylmethylene)-2,2-dimethyl-1,3-dioxane-4,6-dione]
effet agoniste (activité du récepteur AR) [4]: n'induisent pas une activité anormale des récepteurs
effet agoniste (activité du récepteur ERα) [5]: n'induisent pas une activité anormale des récepteurs
effet agoniste (activité du récepteur PXR) [6]: n'induisent pas une activité anormale des récepteurs
effet antagoniste sur le récepteur AR [7]: n'empêchent pas l'activité des récepteurs envers les molécules de référence
effet antagoniste sur le récepteur ERα [8]: n'empêchent pas l'activité des récepteurs envers les molécules de référence
effet antagoniste sur le récepteur PXR [9]: n'empêchent pas l'activité des récepteurs envers les molécules de référence

λmax ([1]; Tableau 2): 398
A (t=0 min) ([2]; Tableau 2): 0,26515
Perte d'activité (%) [2, 10]: 6,37%
IC50 [3, 12]: 2.9 nmol
Compound: CC1(C)OC(=O)C(=Cc2ccc(O)c(O)c2)C(=O)O1 [Composé 9]
capacité antioxydante ([3]; result in words): remarquables

λmax ([1]; Tableau 2): 374
A (t=0 min) ([2]; Tableau 2): 0,29431
Perte d'activité (%) [2, 10]: 3,47%
IC50 (nmol) ([3]; antioxidant properties): Pas d'effet
Compound: CC1(C)OC(=O)C(=Cc2ccc(O)cc2)C(=O)O1 [Composé 10, 5-(4-Hydroxybenzylidene)-2,2-dimethyl-1,3-dioxane-4,6-dione]

λmax ([1]; Tableau 1): 400
Perte d'activité (%) [2, 11]: < 5%
Perte d'activité (%) ([2]; Tableau 1, UV exposure λ 300 nm, P 8.32 W/m^2, one hour, listed as Composé (2)): 4,2%
A (t=0 min) ([2]; Tableau 1): 0,37961
Compound: Cc1cc(C=C2C(=O)OC(C)(C)OC2=O)oc1C [compound 2, 5-[(4,5-Dimethyl-2-furanyl)methylene]-2,2-dimethyl-1,3-dioxane-4,6-dione]

λmax ([1]; Tableau 1): 374
Perte d'activité (%) [2, 11]: < 5%
Perte d'activité (%) ([2]; Tableau 1, UV exposure λ 300 nm, P 8.32 W/m^2, one hour, listed as Composé (3)): 5,1%
A (t=0 min) ([2]; Tableau 1): 0,31307
Compound: CCc1ccc(C=C2C(=O)OC(C)(C)OC2=O)o1 [compound 3, 5-[(5-Ethyl-2-furanyl)methylene]-2,2-dimethyl-1,3-dioxane-4,6-dione]

λmax ([1]; Tableau 1): 386
Perte d'activité (%) [2, 11]: 28,7%
A (t=0 min) ([2]; Tableau 1): 0,32310
Compound: CC1(C)OC(=O)C(=Cc2cc3ccccc3o2)C(=O)O1 [compound 5, 5-(2-benzofuranylmethylene)-2,2-dimethyl-1,3-dioxane-4,6-dione]

λmax ([1]; Tableau 1): 366
Perte d'activité (%) [2, 11]: 12,0%
A (t=0 min) ([2]; Tableau 1): 0,28728
Compound: CC(=O)OCc1ccc(C=C2C(=O)OC(C)(C)OC2=O)o1 [compound 6, 5-[[5-((Acetyloxy)methyl)-2-furanyl]methylene]-2,2-dimethyl-1,3-dioxane-4,6-dione]

λmax ([1]; Tableau 1): 406 - 426
Perte d'activité (%) [2, 11]: 12,4%
A (t=0 min) ([2]; Tableau 1): 0,47642
Compound: CC1(C)OC(=O)C(=Cc2ccc(C=C3C(=O)OC(C)(C)OC3=O)o2)C(=O)O1 [compound 7, 5,5'-(2,5-furandiyldimethylidyne)bis-2,2-dimethyl-1,3-dioxane-4,6-dione]

Further lines, the molecule ahead of its results:

Compound: COc1cc(C=C2C(=O)OC(C)(C)OC2=O)cc(OC)c1O
λmax ([1]; Tableau 2): 405
A (t=0 min) ([2]; Tableau 2): 0,24614
Perte d'activité (%) [2, 10]: 11,43%
IC50 ([3]; antioxidant properties; read-out: IC50 (nmol)): 3.58 nM
capacité antioxydante ([3]; result in words): remarquables

Compound: COc1ccc(C(=O)CC(=O)c2ccc(C(C)(C)C)cc2)cc1 [Avobenzone, reference compound]
λmax ([1]; Tableau 1): 350
Perte d'activité (%) [2, 11]: 0,6%
A (t=0 min) ([2]; Tableau 1): 0,36735

Compound: COc1ccc(O)c(C(C)(C)C)c1 [BHA, reference compound]
IC50 [3, 12]: 6.51 nmol

Compound: Cc1cc(C(C)(C)C)c(O)c(C(C)(C)C)c1 [BHT, reference compound]
IC50 [3, 12]: 13.1 nmol

Compound: CC1(C)OC(=O)C(=CC=Cc2ccco2)C(=O)O1 [compound 19, 5-[3-(2-furanyl)-2-propen-1-ylidene]-2,2-dimethyl-1,3-Dioxane-4,6-dione]
absorption UVA et lumière bleue (spectre UV-Vis) ([1]; in ethanol at 10^-5 mol/L, Figure 2): comparables à ceux obtenus avec les composés 1 à 7
